Measurements published in ChEMBL document CHEMBL5724914, “Linking interpersonal differences in gut microbiota composition and drug biotransformation activity” (2024).

How the values were obtained:
Conditions in all cases: 2 µM
[1] = (§1) The drug is tested on Z-014 corresponding to rat gut metagenome with ENA study accession number: PRJEB37062 and ENA sample accession number: ERS12561814 for biotransformation under anaerobic condition. The drug concentrations were measured over 9 timepoints collected between 0 and 24 hours of incubation by liquid-chromatography-coupled mass spectrometry (LC–MS)
[2] = as §1, with “on Z-025” for “on Z-014”, “to rabbit” for “to rat”, “number: ERS12561824” for “number: ERS12561814”
[3] = as §1, with “Z-007” for “Z-014”, “ERS12561807” for “ERS12561814”
[4] = as §1, with “on Z-020” for “on Z-014”, “to rabbit” for “to rat”, “number: ERS12561819” for “number: ERS12561814”
[5] = as §1, with “Z-027” for “Z-014”, “to” for “to rat gut”, “ERS12561826” for “ERS12561814”
[6] = as §1, with “on Z-018” for “on Z-014”, “to pig” for “to rat”, “number: ERS12561817” for “number: ERS12561814”
[7] = as §1, with “on Z-024” for “on Z-014”, “to pig” for “to rat”, “number: ERS12561823” for “number: ERS12561814”
[8] = as §1, with “on Z-003” for “on Z-014”, “to pig” for “to rat”, “number: ERS12561803” for “number: ERS12561814”
[9] = as §1, with “Z-008” for “Z-014”, “to” for “to rat gut”, “ERS12561808” for “ERS12561814”
[10] = as §1, with “on Z-030” for “on Z-014”, “to mouse” for “to rat”, “number: ERS12561829” for “number: ERS12561814”
[11] = as §1, with “Z-010” for “Z-014”, “to” for “to rat gut”, “ERS12561810” for “ERS12561814”
[12] = as §1, with “Z-019” for “Z-014”, “ERS12561818” for “ERS12561814”
[13] = as §1, with “Z-005” for “Z-014”, “to” for “to rat gut”, “ERS12561805” for “ERS12561814”
[14] = as §1, with “on Z-009” for “on Z-014”, “to pig” for “to rat”, “number: ERS12561809” for “number: ERS12561814”
[15] = as §1, with “Z-026” for “Z-014”, “to” for “to rat gut”, “ERS12561825” for “ERS12561814”
[16] = as §1, with “on Z-028” for “on Z-014”, “to mouse” for “to rat”, “number: ERS12561827” for “number: ERS12561814”
[17] = as §1, with “Z-021” for “Z-014”, “to” for “to rat gut”, “ERS12561820” for “ERS12561814”
[18] = as §1, with “on Z-006” for “on Z-014”, “to mouse” for “to rat”, “number: ERS12561806” for “number: ERS12561814”
[19] = as §1, with “Z-012” for “Z-014”, “to” for “to rat gut”, “ERS12561812” for “ERS12561814”
[20] = as §1, with “Z-023” for “Z-014”, “to” for “to rat gut”, “ERS12561822” for “ERS12561814”
[21] = as §1, with “on Z-001” for “on Z-014”, “to mouse” for “to rat”, “number: ERS12561801” for “number: ERS12561814”
[22] = as §1, with “on Z-002” for “on Z-014”, “to rabbit” for “to rat”, “number: ERS12561802” for “number: ERS12561814”
[23] = as §1, with “Z-029” for “Z-014”, “ERS12561828” for “ERS12561814”
[24] = as §1, with “on Z-022” for “on Z-014”, “to mouse” for “to rat”, “number: ERS12561821” for “number: ERS12561814”
[25] = as §1, with “on Z-017” for “on Z-014”, “to mouse” for “to rat”, “number: ERS12561816” for “number: ERS12561814”
[26] = as §1, with “on Z-016” for “on Z-014”, “to mouse” for “to rat”, “number: ERS12561815” for “number: ERS12561814”
[27] = as §1, with “on Z-013” for “on Z-014”, “to rabbit” for “to rat”, “number: ERS12561813” for “number: ERS12561814”
[28] = as §1, with “on Z-011” for “on Z-014”, “to mouse” for “to rat”, “number: ERS12561811” for “number: ERS12561814”
[29] = as §1, with “Z-004” for “Z-014”, “to” for “to rat gut”, “ERS12561804” for “ERS12561814”
Further: call rule not given here.

| SMILES | Bacterial Biotransformation [1] | Bacterial Biotransformation [2] | Bacterial Biotransformation [3] | Bacterial Biotransformation [4] | Bacterial Biotransformation [5] | Bacterial Biotransformation [6] | Bacterial Biotransformation [7] | Bacterial Biotransformation [8] | Bacterial Biotransformation [9] | Bacterial Biotransformation [10] | Bacterial Biotransformation [11] | Bacterial Biotransformation [12] | Bacterial Biotransformation [13] | Bacterial Biotransformation [14] | Bacterial Biotransformation [15] | Bacterial Biotransformation [16] | Bacterial Biotransformation [17] | Bacterial Biotransformation [18] | Bacterial Biotransformation [19] | Bacterial Biotransformation [20] | also measured |
| --- | --- | --- | --- | --- | --- | --- | --- | --- | --- | --- | --- | --- | --- | --- | --- | --- | --- | --- | --- | --- | --- |
| CN1C[C@H](C(=O)N[C@]2(C)O[C@@]3(O)[C@@H]4CCCN4C(=O)[C@H](Cc4ccccc4)N3C2=O)C[C@@H]2c3cccc4[nH]cc(c34)C[C@H]21.CS(=O)(=O)O [DIHYDROERGOTAMINE MESYLATE] | Compound NOT metabolized | Compound metabolized | Compound NOT metabolized | Compound NOT metabolized | Compound NOT metabolized | Compound NOT metabolized | Compound metabolized | Compound NOT metabolized | Compound NOT metabolized | Compound NOT metabolized | Compound NOT metabolized | Compound NOT metabolized | Compound NOT metabolized | Compound NOT metabolized | Compound metabolized | Compound NOT metabolized | Compound NOT metabolized | Compound NOT metabolized | Compound NOT metabolized | Compound metabolized | Bacterial Biotransformation [21]: Compound NOT metabolized; Bacterial Biotransformation [22]: Compound metabolized; Bacterial Biotransformation [23]: Compound NOT metabolized; Bacterial Biotransformation [24]: Compound metabolized; Bacterial Biotransformation [25]: Compound NOT metabolized; Bacterial Biotransformation [26]: Compound NOT metabolized; Bacterial Biotransformation [27]: Compound NOT metabolized; Bacterial Biotransformation [28]: Compound NOT metabolized; Bacterial Biotransformation [29]: Compound NOT metabolized |
| CC(=O)SCC(Cc1ccccc1)C(=O)NCC(=O)OCc1ccccc1 (stereo not drawn) [RACECADOTRIL] | Compound metabolized | Compound metabolized | Compound metabolized | Compound metabolized | Compound NOT metabolized | Compound metabolized | Compound metabolized | Compound metabolized | Compound metabolized | Compound metabolized | Compound metabolized | Compound metabolized | Compound metabolized | Compound metabolized | Compound metabolized | Compound metabolized | Compound metabolized | Compound metabolized | Compound metabolized | Compound metabolized | Bacterial Biotransformation [21]: Compound metabolized; Bacterial Biotransformation [22]: Compound metabolized; Bacterial Biotransformation [23]: Compound metabolized; Bacterial Biotransformation [24]: Compound metabolized; Bacterial Biotransformation [25]: Compound metabolized; Bacterial Biotransformation [26]: Compound metabolized; Bacterial Biotransformation [27]: Compound metabolized; Bacterial Biotransformation [28]: Compound metabolized; Bacterial Biotransformation [29]: Compound metabolized |
